Measured values taken from paper PMC9409145, “(-)-Epicatechin Is a Biased Ligand of Apelin Receptor” (International Journal of Molecular Sciences, 2022).
pEC50: −log10 of the molar value.

Experiments:
[1] = target: T1, apelin receptor (APLNR; APJ), PathHunter eXpress (Homo sapiens, UniProt P35414); experiment: beta-arrestin-2 recruitment, enzyme complementation chemiluminescence; type: cell-based; details: antagonist; cells pre-incubated with ML221, then EC as agonist
T1 construct: full-length receptor with C-terminal ProLink (beta-galactosidase fragment) tag, stably expressed in CHO-K1 with enzyme-acceptor-tagged beta-arrestin-2
T1 sequence (P35414 1-380): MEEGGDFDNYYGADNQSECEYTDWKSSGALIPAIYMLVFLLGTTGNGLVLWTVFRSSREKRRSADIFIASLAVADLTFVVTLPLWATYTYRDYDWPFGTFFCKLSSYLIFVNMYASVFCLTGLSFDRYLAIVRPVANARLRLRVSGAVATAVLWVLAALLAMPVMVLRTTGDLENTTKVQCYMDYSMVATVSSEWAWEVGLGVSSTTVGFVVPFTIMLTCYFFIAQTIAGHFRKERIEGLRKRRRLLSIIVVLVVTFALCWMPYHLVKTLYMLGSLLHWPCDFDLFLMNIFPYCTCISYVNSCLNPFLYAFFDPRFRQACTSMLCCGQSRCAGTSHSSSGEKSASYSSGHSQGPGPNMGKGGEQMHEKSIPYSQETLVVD

[2] = target: T1, apelin receptor (APLNR; APJ), PathHunter eXpress; experiment: beta-arrestin-2 recruitment, enzyme complementation chemiluminescence, specific binding with Hill slope fit; type: cell-based; details: agonist; apparent constant from functional response, not a radioligand; 1 h incubation; CHO-K1 cells; read-out: Kd
Text: beta-arrestin-2 recruitment, enzyme complementation chemiluminescence, specific binding with Hill slope fit on apelin receptor (APLNR; APJ), PathHunter eXpress

[3] = target: T2, apelin receptor (mouse skeletal muscle) (Mus musculus, UniProt Q9WV08); experiment: affinity chromatography on immobilised epicatechin, MS identification; type: binding; details: muscle homogenate, 4 °C overnight, PBS pH 7.4; acid elution (MES pH 4.5); immobilised ligand
T2 construct: gene Aplnr
T2 sequence (Q9WV08 1-377): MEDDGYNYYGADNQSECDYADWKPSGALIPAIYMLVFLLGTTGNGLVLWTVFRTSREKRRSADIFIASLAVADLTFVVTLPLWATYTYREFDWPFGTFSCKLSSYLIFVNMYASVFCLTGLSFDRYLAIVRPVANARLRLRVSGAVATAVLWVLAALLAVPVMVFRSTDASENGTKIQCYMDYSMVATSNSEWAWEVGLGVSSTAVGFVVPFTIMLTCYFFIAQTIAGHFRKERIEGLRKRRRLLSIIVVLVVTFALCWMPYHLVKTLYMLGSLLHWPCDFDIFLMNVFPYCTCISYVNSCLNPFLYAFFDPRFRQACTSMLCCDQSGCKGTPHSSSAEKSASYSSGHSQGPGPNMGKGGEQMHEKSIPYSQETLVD

| Structure (SMILES) | beta-arrestin-2 recruitment, enzyme complementation chemiluminescence [1] | pEC50 [2] | affinity chromatography on immobilised epicatechin, MS identification [3] |
| --- | --- | --- | --- |
| O=C(Oc1coc(CSc2ncccn2)cc1=O)c1ccc([N+](=O)[O-])cc1 [ML221, 5-[(4-Nitrobenzoyl)oxy]-2-[(2-pyrimidinylthio)methyl]-4H-pyran-4-one] | the interaction of the antagonist with the receptor and the blockage of the effect of EC | – | – |
| Oc1cc(O)c2c(c1)O[C@H](c1ccc(O)c(O)c1)[C@H](O)C2 [EC, (-)-epicatechin] | – | 11.76 | Five proteins were identified as receptors: apelin receptor |
